Laboratory results reported in patent publication US11413241B2, “Method for preparing a composition with a low dissolved oxygen content, comprising acetaminophen, and optionally one or more NSAIDs, and a composition obtained thereof” (Hyloris Developments SA, priority 2017, dated 2022).

Columns and labels:
[1] = from literature; cited from earlier work
[2] = Amount of acetaminophen at various points in time and different pH; assay type: physicochemical; settings: pH range 6.3-7.3, various points in time
Excerpt: The amount of acetaminophen was studied at varies points in time and for different pH's.

[3] = Dissolution/precipitation of sodium ibuprofen 2H2O alone in water at decreasing pH; assay type: physicochemical
[4] = Dissolution of sodium ibuprofen 2H2O in the acetaminophen-ibuprofen formulation at varying pH; assay type: physicochemical

Q: With `CC(=O)Nc1ccc(O)cc1` [acetaminophen, N-(4-hydroxyphenyl)acetamide] as the molecule, how does the “pH at which rate of degradation is minimal” value [1] read?
A: ~6

Q: What about the degradation of acetaminophen [2] of the same molecule?
A: minimal degradation

Q: Which “pH at which precipitation is observed” value ([3]; 3.85 mg/ml sodium ibuprofen 2H2O in water, pH gradually decreased) does the source give for `CC(C)Cc1ccc(C(C)C(=O)O)cc1` (stereo not shown) [ibuprofen] here?
A: 5.75

Q: What about the precipitation ([3]; pH 6, stored 1 month at 25° C.) of the same molecule?
A: showed precipitation

Q: And the precipitation ([3]; pH 6.2, stored 1 month at 25° C.)?
A: precipitation was absent

Q: What does the source list for `CC(C)Cc1ccc(C(C)C(=O)O)cc1` (stereo not shown) [sodium ibuprofen 2H2O]?
A: pH of composition ([3]; 3.85 mg/ml in water, before pH decrease): 8.80; Dissolved ([3]; alone in water, pH 3): No; Dissolved ([3]; alone in water, pH 4): No; Dissolved ([3]; alone in water, pH 5): No; Dissolved ([3]; alone in water, pH 5.5): No; Dissolved ([3]; alone in water, pH 5.8): Yes; Dissolved ([3]; alone in water, pH 6): Yes; Dissolved ([3]; alone in water, pH 6.2): Yes; Dissolved ([3]; alone in water, pH 6.4): Yes; Dissolved ([3]; alone in water, pH 6.6): Yes; Dissolved ([3]; alone in water, pH 6.8): Yes; Dissolved ([3]; alone in water, pH 7): Yes; Dissolved ([3]; alone in water, pH 7.5): Yes; Dissolved ([3]; in water after 1 month storage at 25° C., pH 5.8): No; Dissolved ([3]; in water after 1 month storage at 25° C., pH 6): No; Dissolved ([3]; in water after 1 month storage at 25° C., pH 6.2): Yes; Dissolved ([3]; in water after 1 month storage at 25° C., pH 6.4): Yes; Dissolved ([3]; in water after 1 month storage at 25° C., pH 6.6): Yes; Dissolved ([3]; in water after 1 month storage at 25° C., pH 6.8): Yes; Dissolved ([3]; in water after 1 month storage at 25° C., pH 7): Yes; Dissolved ([3]; in water after 1 month storage at 25° C., pH 7.5): Yes; Dissolved ([4]; in the formulation 3 mg/ml Acetaminophen 10 mg/ml Ibuprofen, pH 6.2): Yes; Dissolved ([4]; in the formulation 3 mg/ml Acetaminophen 10 mg/ml Ibuprofen, pH 6.3): Yes; Dissolved ([4]; in the formulation 3 mg/ml Acetaminophen 10 mg/ml Ibuprofen, pH 6.4): Yes; Dissolved ([4]; in the formulation 3 mg/ml Acetaminophen 10 mg/ml Ibuprofen, pH 6.6): Yes; Dissolved ([4]; in the formulation 3 mg/ml Acetaminophen 10 mg/ml Ibuprofen, pH 7): Yes; Dissolved ([4]; in the formulation Acetaminophen - Ibuprofen, 1 month, pH 6.2): No; Dissolved ([4]; in the formulation Acetaminophen - Ibuprofen, 1 month, pH 6.3): Yes; Dissolved ([4]; in the formulation Acetaminophen - Ibuprofen, 1 month, pH 6.4): Yes; Dissolved ([4]; in the formulation Acetaminophen - Ibuprofen, 1 month, pH 6.6): Yes; Dissolved ([4]; in the formulation Acetaminophen - Ibuprofen, 1 month, pH 7): Yes; Dissolved ([4]; in the formulation Acetaminophen - Ibuprofen, 6 months, 25° C., pH 6.3): Yes; Dissolved ([4]; in the formulation Acetaminophen - Ibuprofen, 6 months, 25° C., pH 6.4): Yes; Dissolved ([4]; in the formulation Acetaminophen - Ibuprofen, 6 months, 25° C., pH 6.6): Yes; Dissolved ([4]; in the formulation Acetaminophen - Ibuprofen, 6 months, 25° C., pH 7): Yes
